Measurements: US9169241B2, “Quinolinyloxyphenylsulfonamides” (Max-Planck-Gesellschaft Zur Forderung der Wissenschaften …, priority 2009, dated 2015)
Like-named read-outs stand apart in the source and are kept apart here.

How the values were obtained:
Type in all cases: cell-based
[1] = test system: tumor cell; assay: Matrigel outgrowth assay/branching assay (Table Va)
Summary of the method: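 Matrigel 3 mg/ml, polymerized 1 h 37° C; 5000 cells/well + cmpd 3.125/1.56/0.78 μM or DMSO. Imaged 48/72/96 h, 5× objective. Positive = total branching block.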

[2] = test system: viable cells in culture; assay: Cell viability assay at 10 μM (CellTiter-Glo, Table VII); conditions: compound 10 μM, 72 h;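 note: graded A 0-20%; B 21-40%; C 41-60%; D over 60% viable cells relative to DMSO control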
Summary of the method: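 Cells were seeded at 1000 cells/well in 96-well plates in 100 μl culture medium and incubated for 72 h with 10 μM compound or a DMSO control. ATP content, which reflects metabolically active and therefore viable cells, was then determined by CellTiter-Glo luminescence (Promega) per the manufacturer's instructions and expressed relative to the DMSO control.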

[3] = test system: A172; assay: Cell vitality assay (ATP assay, CellTiter-Glo); conditions: Homo sapiens, A 172; A172, 72 h; Table IIa; read-out: IC50 ATP-Assay after 72 h A172
Summary of the method: (§1)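 ATP-based luminescence (CellTiter-Glo) after 72 h exposure of 1000 cells/well to seven compound concentrations from 0.195 to 12.5 μM. IC50 defined as concentration reducing ATP to 50% of DMSO control.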

[4] = test system: C8161; assay: Cell vitality assay (ATP assay, CellTiter-Glo); conditions: Homo sapiens; C8161, 72 h; Table IIa; read-out: IC50 ATP-Assay after 72 h C8161
Summary of the method: as §1

[5] = test system: MDA-MB231; assay: Cell vitality assay (ATP assay, CellTiter-Glo); conditions: Homo sapiens, MDA-MB-231
Summary of the method: as §1

[6] = test system: Hs578T; assay: Apoptosis assay (Cellomics, nucleus condensation); conditions: Homo sapiens, Hs-578T, Table III, read-out: Apoptosis induction in Hs578T
Summary of the method: (§2)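 Cells at 5000 per well were stained live with Hoechst 33342 and imaged on an automated fluorescence microscope after 24 h and 48 h compound exposure (12.5 μM down to 0.39 μM, twofold steps; DMSO control). Per-nucleus intensity variation quantified nuclear condensation; cell counts were also recorded.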

[7] = test system: SF763; assay: Apoptosis assay (Cellomics, nucleus condensation); conditions: Table III, read-out: Apoptosis induction in SF763
Summary of the method: as §2

[8] = test system: U118; assay: Apoptosis assay (Cellomics, nucleus condensation); conditions: Table III, read-out: Apoptosis induction in U118
Summary of the method: as §2

[9] = test system: C8161; assay: Apoptosis assay (Cellomics, nucleus condensation); conditions: Homo sapiens, Table III, read-out: Apoptosis induction in C8161
Summary of the method: as §2

[10] = test system: SF126; assay: Apoptosis assay (Cellomics, nucleus condensation); conditions: Homo sapiens, SF-126, Table III, read-out: Apoptosis induction in SF126
Summary of the method: as §2

[11] = test system: U138; assay: Apoptosis assay (Cellomics, nucleus condensation); conditions: Table III, read-out: Apoptosis induction in U138
Summary of the method: as §2

[12] = Homo sapiens, C8161 cells, read-out: Total branching inhibition in Matrigel C8161
[13] = Homo sapiens, Hs-578T, Hs578T cells, read-out: Total branching inhibition in Matrigel Hs578T
[14] = U118 cells, read-out: Total branching inhibition in Matrigel U118
[15] = U138 cells, read-out: Total branching inhibition in Matrigel U138
[16] = Homo sapiens, HCT-116, HCT116 def, read-out: percentage (%) of viable cells HCT 116def
[17] = Homo sapiens, HCT-116, HCT116 wt, read-out: percentage (%) of viable cells HCT 116wt
[18] = Homo sapiens, HT-29, HT29, read-out: percentage (%) of viable cells HT29
[19] = Homo sapiens, NCI-H358, H358, read-out: percentage (%) of viable cells H358
[20] = Homo sapiens, NCI-H1650, H1650, read-out: percentage (%) of viable cells H1650
[21] = Homo sapiens, NCI-H1666, H1666, read-out: percentage (%) of viable cells H1666
[22] = Homo sapiens, NCI-H1975, H1975, read-out: percentage (%) of viable cells H1975
[23] = Homo sapiens, NCI-H1993, H1993, read-out: percentage (%) of viable cells H1993
[24] = Homo sapiens, A549, read-out: percentage (%) of viable cells A549
[25] = Homo sapiens, HCC827, read-out: percentage (%) of viable cells HCC827
[26] = Homo sapiens, SW480, read-out: percentage (%) of viable cells SW480
[27] = RKO, read-out: percentage (%) of viable cells RKO
[28] = MDA-MB231, 72 h, Table IIa, read-out: IC50 ATP-Assay after 72 h MDA-MB231

Row | SMILES | IC50 [1, 12] [µM] | IC50 [1, 13] [µM] | IC50 [1, 14] [µM] | IC50 [1, 15] [µM] | viability at 10 µM [2, 16] [%] | viability at 10 µM [2, 17] [%] | viability at 10 µM [2, 18] [%] | viability at 10 µM [2, 19] [%] | viability at 10 µM [2, 20] [%] | viability at 10 µM [2, 21] [%] | viability at 10 µM [2, 22] [%] | viability at 10 µM [2, 23] [%] | viability at 10 µM [2, 24] [%] | viability at 10 µM [2, 25] [%] | viability at 10 µM [2, 26] [%] | viability at 10 µM [2, 27] [%] | IC50 [4] [µM] | IC50 [5, 28] [µM] | IC50 [6] [µM] | IC50 [7] [µM] | other results
1 | COc1cc2c(Oc3ccc(NS(=O)(=O)c4cc(F)ccc4F)cc3F)ccnc2cc1OCCCN1CCCCC1 [Example 1, 2,5-Difluoro-N-{3-fluoro-4-[6-methoxy-7-(3-piperidin-1-yl-propoxy)-quinolin-4-yloxy]-phenyl}-benzenesulfonamide] | ≤ 5 | ≤ 5 | ≤ 5 | ≤ 5 | 0 to 20 | 0 to 20 | 21 to 40 | 0 to 20 | 41 to 60 | 41 to 60 | 21 to 40 | 21 to 40 | > 60 | 21 to 40 | 0 to 20 | 0 to 20 | 12.5 to 50 | 12.5 to 50 | ≤ 12.5 | 12.5 to 50 | IC50 [3]: ≤ 12.5 µM; IC50 ([5]; cell vitality assay, MDA-MB231, Table IIc, read-out: IC50 MDA-MB231): ≤ 12.5 µM; IC50 [8]: ≤ 12.5 µM; IC50 [9]: ≤ 12.5 µM; IC50 [10]: ≤ 12.5 µM; IC50 [11]: ≤ 12.5 µM
2 | COc1cc2c(Oc3ccc(NS(=O)(=O)c4ccccc4[N+](=O)[O-])cc3F)ccnc2cc1OCCCN1CCCCC1 [Example 7, N-{3-Fluoro-4-[6-methoxy-7-(3-piperidin-1-yl-propoxy)-quinolin-4-yloxy]-phenyl}-2-nitro-benzenesulfonamide] | ≤ 5 | 5 to 50 | ≤ 5 | 5 to 50 | 21 to 40 | 0 to 20 | 0 to 20 | 0 to 20 | 0 to 20 | 21 to 40 | 21 to 40 | 21 to 40 | 41 to 60 | 0 to 20 | 0 to 20 | 0 to 20 | ≤ 12.5 | ≤ 12.5 | ≤ 12.5 | ≤ 12.5 | IC50 [3]: 12.5 to 50 µM; IC50 [8]: 12.5 to 50 µM; IC50 [9]: ≤ 12.5 µM; IC50 [11]: ≤ 12.5 µM
3 | COc1cc2c(Oc3ccc(NS(=O)(=O)c4cccc(Oc5ccccc5)c4)cc3F)ccnc2cc1OCCCN1CCCCC1 [Example 10, N-{3-Fluoro-4-[6-methoxy-7-(3-piperidin-1-yl-propoxy)-quinolin-4-yloxy]-phenyl}-3-phenoxy-benzenesulfonamide] | ≤ 5 | ≤ 5 | ≤ 5 | 5 to 50 | 0 to 20 | 0 to 20 | 21 to 40 | 0 to 20 | 21 to 40 | 21 to 40 | 21 to 40 | 0 to 20 | 21 to 40 | 0 to 20 | 0 to 20 | 0 to 20 | ≤ 12.5 | ≤ 12.5 | ≤ 12.5 | 12.5 to 50 | IC50 [3]: ≤ 12.5 µM; IC50 [8]: ≤ 12.5 µM; IC50 [9]: ≤ 12.5 µM; IC50 [10]: 12.5 to 50 µM; IC50 [11]: ≤ 12.5 µM
4 | COc1cc2c(Oc3ccc(NS(=O)(=O)c4ccccc4Cl)cc3F)ccnc2cc1OCCCN1CCCC(C)C1 (stereo not drawn) [Example 38, 2-Chloro-N-(3-fluoro-4-{6-methoxy-7-[3-(3-methyl-piperidin-1-yl)-propoxy]-quinolin-4-yloxy}-phenyl)-benzenesulfonamide] | ≤ 5 | ≤ 5 | ≤ 5 | 5 to 50 | 21 to 40 | 21 to 40 | 0 to 20 | 0 to 20 | > 60 | 21 to 40 | 21 to 40 | 21 to 40 | > 60 | 41 to 60 | 0 to 20 | 0 to 20 | ≤ 12.5 | ≤ 12.5 | ≤ 12.5 | ≤ 12.5 | IC50 [3]: ≤ 12.5 µM; IC50 [8]: ≤ 12.5 µM; IC50 [9]: ≤ 12.5 µM; IC50 [10]: ≤ 12.5 µM; IC50 [11]: ≤ 12.5 µM
5 | COc1cc2c(Oc3ccc(NS(=O)(=O)c4ccc(F)cc4F)cc3F)ccnc2cc1OCCCN1CCCC(C)C1 (stereo not drawn) [Example 47, 2,4-Difluoro-N-(3-fluoro-4-{6-methoxy-7-[3-(3-methyl-piperidin-1-yl)-propoxy]-quinolin-4-yloxy}-phenyl)-benzenesulfonamide] | ≤ 5 | ≤ 5 | ≤ 5 | 5 to 50 | 21 to 40 | 0 to 20 | 41 to 60 | 0 to 20 | 41 to 60 | 21 to 40 | 0 to 20 | 0 to 20 | 41 to 60 | 41 to 60 | 21 to 40 | 0 to 20 | 12.5 to 50 | 12.5 to 50 | ≤ 12.5 | ≤ 12.5 | IC50 [3]: ≤ 12.5 µM; IC50 [8]: ≤ 12.5 µM; IC50 [9]: 12.5 to 50 µM; IC50 [10]: 12.5 to 50 µM; IC50 [11]: ≤ 12.5 µM
6 | COc1cc2c(Oc3ccc(NS(=O)(=O)c4c(F)cccc4F)cc3F)ccnc2cc1OCCCN1CCOCC1 [Example 77, 2,6-Difluoro-N-{3-fluoro-4-[6-methoxy-7-(3-morpholin-4-yl-propoxy)-quinolin-4-yloxy]-phenyl}-benzenesulfonamide] | 5 to 50 | ≤ 5 | ≤ 5 | 5 to 50 | 21 to 40 | 0 to 20 | 41 to 60 | 0 to 20 | 21 to 40 | 41 to 60 | 0 to 20 | 21 to 40 | 41 to 60 | > 60 | 0 to 20 | 21 to 40 | ≤ 12.5 | 12.5 to 50 | ≤ 12.5 | ≤ 12.5 | IC50 [3]: ≤ 12.5 µM; IC50 [8]: ≤ 12.5 µM; IC50 [9]: ≤ 12.5 µM; IC50 [10]: ≤ 12.5 µM; IC50 [11]: ≤ 12.5 µM
7 | COc1cc2c(Oc3ccc(NS(=O)(=O)c4ccccc4C(F)(F)F)cc3F)ccnc2cc1OCCCNC1CCOCC1 [Example 95, N-(3-Fluoro-4-{6-methoxy-7-[3-(tetrahydro-pyran-4-ylamino)-propoxy]-quinolin-4-yloxy}-phenyl)-2-trifluoromethyl-benzenesulfonamide] | ≤ 5 | ≤ 5 | 5 to 50 | 5 to 50 | 21 to 40 | 21 to 40 | 0 to 20 | 0 to 20 | 21 to 40 | 21 to 40 | 0 to 20 | 0 to 20 | > 60 | 21 to 40 | 0 to 20 | 0 to 20 | 12.5 to 50 | ≤ 12.5 | ≤ 12.5 | ≤ 12.5 | IC50 [8]: ≤ 12.5 µM; IC50 [9]: ≤ 12.5 µM; IC50 [10]: ≤ 12.5 µM; IC50 [11]: ≤ 12.5 µM
